Source: US9302999B2, “Substituted triazoles as herbicides” (E. I. DU PONT DE NEMOURS AND COMPANY, priority 2012, dated 2016)

What was measured:
Format in all cases: in vivo
corn (Zea mays) [1] = assay: Test A pre-/postemergence: corn; conditions: for Corn plant response rating: Postemergence; for Plant response rating, Corn: Preemergence
Procedure, shortened: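 Injury was scored visually on a 0 (no effect) to 100 (complete control) scale versus untreated controls roughly ten days after treatment in the greenhouse. Compounds, formulated in surfactant-containing non-phytotoxic solvent, went on as soil-directed preemergence spray or postemergence to one- to two-leaf plants 2–10 cm tall.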

corn (Zea mays) [2] = assay: Test C pre-/postemergence: corn
Procedure, shortened: (§1)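 Preemergence on seeds in loam/sand, postemergence on 2–18 cm (1–4-leaf) plants in peat-based medium; compounds in non-phytotoxic solvent with surfactant. After 13–15 days in greenhouse, visual rating versus controls, 0 (no effect) to 100 (complete control).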

[3] = tested on: chickweed (common chickweed, Stellaria media); assay: Test C postemergence: chickweed
Procedure, shortened: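 Pot-grown plants in peat/vermiculite medium sprayed postemergence at 2–18 cm height (1- to 4-leaf stage). Kept in greenhouse 13 to 15 days, then visually rated against untreated controls on a 0–100 scale (0 = no effect, 100 = complete control).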

[4] = tested on: large crabgrass (Digitaria sanguinalis); assay: Test C pre-/postemergence: large crabgrass
Procedure, shortened: as §1

kochia (Kochia scoparia) = assay: Test C pre-/postemergence: kochia
Procedure, shortened: as §1

[5] = tested on: foxtail, giant (giant foxtail, Setaria faberii); assay: Test C pre-/postemergence: foxtail, giant
Procedure, shortened: as §1

[6] = tested on: ragweed (common ragweed, Ambrosia elation); assay: Test C pre-/postemergence: ragweed
Procedure, shortened: as §1

[7] = tested on: nutsedge, yellow (yellow nutsedge, Cyperus esculentus); assay: Test C pre-/postemergence: nutsedge, yellow
Procedure, shortened: as §1

wild oat (Avena fatua) = assay: Test C pre-/postemergence: wild oat
Procedure, shortened: as §1

[8] = tested on: velvetleaf (Abutilon theophrasti); assay: Test C pre-/postemergence: velvetleaf
Procedure, shortened: as §1

[9] = tested on: ducksalad (Heteranthera limosa); assay: Test B flooded paddy: ducksalad; conditions: Flood; 250 g ai/ha; applied to paddy water at 2-leaf stage; visually evaluated after 13 to 15 days
Procedure, shortened: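 Paddy-water application: seedlings at 2-leaf stage, flood depth 3 cm maintained for the test duration. Evaluation after 13–15 days in the greenhouse by eye relative to controls; 0–100 scale.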

[10] = Postemergence, 31 g ai/ha, scale 0 to 100 (0 no effect, 100 complete control)
[11] = Postemergence, 62 g ai/ha, scale 0 to 100 (0 no effect, 100 complete control)
[12] = Postemergence, 125 g ai/ha, scale 0 to 100, 0 no effect, 100 complete control
[13] = Postemergence, 250 g ai/ha, scale 0 to 100
[14] = Preemergence, 31 g ai/ha, scale of 0 to 100, 0 is no effect, 100 is complete control
[15] = Preemergence, 62 g ai/ha, scale of 0 to 100, 0 is no effect, 100 is complete control
[16] = Preemergence, 125 g ai/ha, scale 0 to 100, 0 no effect, 100 complete control
[17] = Preemergence, 250 g ai/ha, scale 0 to 100, 0 no effect, 100 complete control

In the case of `Cc1nn(-c2ccc(C(F)(F)F)c(F)c2)nc1Oc1ccnc(C(F)(F)F)c1` [Compound 148], the “Corn plant response rating” value (corn (Zea mays) [1]; 125 g ai/ha, 0 to 100 scale, 0 is no effect, 100 is complete control) is reported as 20, the “Corn plant response rating” value (corn (Zea mays) [1]; 500 g ai/ha, visual rating on 0 to 100 scale (0 no effect, 100 complete control), approximately ten days) is reported as 40 and the “Plant response rating, Corn” value (corn (Zea mays) [1]; 125 g ai/ha, 0 to 100 scale where 0 is no effect and 100 is complete control) is reported as 10. The “Plant response rating, Corn” value (corn (Zea mays) [1]; 500 g ai/ha, 0 to 100 scale (0 no effect, 100 complete control)) was 20, the “Plant response rating, Corn” value (corn (Zea mays) [2]; [10]) was 25 and the “Plant response rating, Corn” value (corn (Zea mays) [2]; [11]) was 30. For the same compound, the “Plant response rating, Corn” value (corn (Zea mays) [2]; [12]) was 55, the “Plant response rating, Corn” value (corn (Zea mays) [2]; [13]) was 60 and the “Plant response rating, Corn” value (corn (Zea mays) [2]; [14]) was 5. The “Plant response rating, Corn” value (corn (Zea mays) [2]; [15]) was 10, the “Plant response rating, Corn” value (corn (Zea mays) [2]; [16]) was 15 and the “Plant response rating, Corn” value (corn (Zea mays) [2]; [17]) was 45. For the same compound, the “Plant response rating, Chickweed” value ([3]; 31 g ai/ha, scale 0 to 100 (0 no effect, 100 complete control)) was 75, the “Plant response rating, Chickweed” value ([3]; 62 g ai/ha, scale 0 to 100 (0 no effect, 100 complete control)) was 75 and the “Plant response rating, Chickweed” value ([3]; 125 g ai/ha, scale 0 to 100, 0 no effect, 100 complete control) was 90. For the same compound, the “Plant response rating, Chickweed” value ([3]; 250 g ai/ha, scale 0 to 100) was 98, the “Plant response rating, Crabgrass, Large” value [4, 10] was 15 and the “Plant response rating, Crabgrass, Large” value [4, 11] was 60. For the same compound, the “Plant response rating, Crabgrass, Large” value [4, 12] was 60, the “Plant response rating, Crabgrass, Large” value [4, 13] was 80 and the “Plant response rating, Crabgrass, Large” value [4, 14] was 100. For the same compound, the “Plant response rating, Crabgrass, Large” value [4, 15] was 100, the “Plant response rating, Crabgrass, Large” value [4, 16] was 100 and the “Plant response rating, Crabgrass, Large” value [4, 17] was 100. The “Plant response rating, Kochia” value (kochia (Kochia scoparia); [10]) was 80, the “Plant response rating, Kochia” value (kochia (Kochia scoparia); [11]) was 85 and the “Plant response rating, Kochia” value (kochia (Kochia scoparia); [12]) was 85. The “Plant response rating, Kochia” value (kochia (Kochia scoparia); [13]) was 95, the “Plant response rating, Kochia” value (kochia (Kochia scoparia); [14]) was 40 and the “Plant response rating, Kochia” value (kochia (Kochia scoparia); [15]) was 40. For the same compound, the “Plant response rating, Kochia” value (kochia (Kochia scoparia); [16]) was 90, the “Plant response rating, Kochia” value (kochia (Kochia scoparia); [17]) was 95 and the “Plant response rating, Foxtail, Giant” value [5, 10] was 10. For the same compound, the “Plant response rating, Foxtail, Giant” value [5, 11] was 35, the “Plant response rating, Foxtail, Giant” value [5, 12] was 35 and the “Plant response rating, Foxtail, Giant” value [5, 13] was 75. For the same compound, the “Plant response rating, Foxtail, Giant” value [5, 14] was 98, the “Plant response rating, Foxtail, Giant” value [5, 15] was 100 and the “Plant response rating, Foxtail, Giant” value [5, 16] was 100. The “Plant response rating, Foxtail, Giant” value [5, 17] was 100, the “Plant response rating, Ragweed” value [6, 10] was 65 and the “Plant response rating, Ragweed” value [6, 11] was 85. The “Plant response rating, Ragweed” value [6, 12] was 85, the “Plant response rating, Ragweed” value [6, 13] was 85 and the “Plant response rating, Ragweed” value [6, 14] was 15. The “Plant response rating, Ragweed” value [6, 15] was 45, the “Plant response rating, Ragweed” value [6, 16] was 55 and the “Plant response rating, Ragweed” value [6, 17] was 70. For the same compound, the “Plant response rating, Nutsedge, Yellow” value [7, 10] was 10, the “Plant response rating, Nutsedge, Yellow” value [7, 11] was 10 and the “Plant response rating, Nutsedge, Yellow” value [7, 12] was 15. For the same compound, the “Plant response rating, Nutsedge, Yellow” value [7, 13] was 15, the “Plant response rating, Nutsedge, Yellow” value [7, 14] was 0 and the “Plant response rating, Nutsedge, Yellow” value [7, 15] was 5. For the same compound, the “Plant response rating, Nutsedge, Yellow” value [7, 16] was 5, the “Plant response rating, Oat, Wild” value (wild oat (Avena fatua); [10]) was 15 and the “Plant response rating, Oat, Wild” value (wild oat (Avena fatua); [11]) was 45. The “Plant response rating, Oat, Wild” value (wild oat (Avena fatua); [12]) was 80, the “Plant response rating, Oat, Wild” value (wild oat (Avena fatua); [13]) was 90 and the “Plant response rating, Oat, Wild” value (wild oat (Avena fatua); [14]) was 35. The “Plant response rating, Oat, Wild” value (wild oat (Avena fatua); [15]) was 85, the “Plant response rating, Oat, Wild” value (wild oat (Avena fatua); [16]) was 85 and the “Plant response rating, Oat, Wild” value (wild oat (Avena fatua); [17]) was 85. For the same compound, the “Plant response rating, Velvetleaf” value [8, 10] was 50, the “Plant response rating, Velvetleaf” value [8, 11] was 50 and the “Plant response rating, Velvetleaf” value [8, 12] was 80. The “Plant response rating, Velvetleaf” value [8, 13] was 85, the “Plant response rating, Velvetleaf” value [8, 14] was 15 and the “Plant response rating, Velvetleaf” value [8, 15] was 55. For the same compound, the “Plant response rating, Velvetleaf” value [8, 16] was 70, the “Plant response rating, Velvetleaf” value [8, 17] was 80 and the “Plant response rating, Ducksalad (0 to 100 scale, 0 is no effect, 100 is complete control)” value [9] was 85.
